Reference: ChEMBL document CHEMBL1201862, “PubChem BioAssay data set” (2004)
Activity calls are given as the source filed them.

Tests used:
Cytochrome P450 2D6 = Cytochrome P450 2D6 (Homo sapiens, UniProt P10635);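 also: CYP2D6 member of a cytochrome P450 panel assay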
Cytochrome P450 2C9 = Cytochrome P450 2C9 (Homo sapiens, UniProt P11712)
[1] = biological target: T1, Heat shock factor protein 1 (Mus musculus, UniProt P38532); assay: decrease of HSF1-responsive luciferase luminescence – cell-based, NIH3T3, dose retest, confirmation (AID 2382); format: functional;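 also: NIH3T3 fibroblasts with HSF1-driven luciferase reporter stressed by proteasome inhibitor MG132; luminescence from HSF1-driven luciferase expression after 8 hours of MG132 stress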
T1 sequence (P38532 whole entry): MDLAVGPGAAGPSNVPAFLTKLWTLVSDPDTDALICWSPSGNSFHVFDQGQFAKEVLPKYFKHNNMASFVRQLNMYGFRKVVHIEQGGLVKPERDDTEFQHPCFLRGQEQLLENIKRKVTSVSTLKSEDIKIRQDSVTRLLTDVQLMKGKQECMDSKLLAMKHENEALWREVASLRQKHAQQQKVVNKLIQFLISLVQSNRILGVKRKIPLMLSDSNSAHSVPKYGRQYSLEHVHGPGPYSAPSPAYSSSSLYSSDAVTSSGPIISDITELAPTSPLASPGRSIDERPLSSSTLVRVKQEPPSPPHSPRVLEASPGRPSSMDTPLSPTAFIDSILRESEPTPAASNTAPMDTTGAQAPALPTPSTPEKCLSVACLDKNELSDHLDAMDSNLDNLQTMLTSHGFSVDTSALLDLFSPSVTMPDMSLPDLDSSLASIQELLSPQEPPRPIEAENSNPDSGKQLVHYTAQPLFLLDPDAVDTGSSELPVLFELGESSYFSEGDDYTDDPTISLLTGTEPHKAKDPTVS

[2] = biological target: T2, Rac GTPase-activating protein 1 (Homo sapiens, UniProt Q9H0H5); assay: blockers of MgcRacGAP-driven Rac1 GTP hydrolysis – biochemical, ADP Hunter fluorescence, primary and confirmatory, confirmation (AID 624330); format: functional
T2 sequence (Q9H0H5 whole entry): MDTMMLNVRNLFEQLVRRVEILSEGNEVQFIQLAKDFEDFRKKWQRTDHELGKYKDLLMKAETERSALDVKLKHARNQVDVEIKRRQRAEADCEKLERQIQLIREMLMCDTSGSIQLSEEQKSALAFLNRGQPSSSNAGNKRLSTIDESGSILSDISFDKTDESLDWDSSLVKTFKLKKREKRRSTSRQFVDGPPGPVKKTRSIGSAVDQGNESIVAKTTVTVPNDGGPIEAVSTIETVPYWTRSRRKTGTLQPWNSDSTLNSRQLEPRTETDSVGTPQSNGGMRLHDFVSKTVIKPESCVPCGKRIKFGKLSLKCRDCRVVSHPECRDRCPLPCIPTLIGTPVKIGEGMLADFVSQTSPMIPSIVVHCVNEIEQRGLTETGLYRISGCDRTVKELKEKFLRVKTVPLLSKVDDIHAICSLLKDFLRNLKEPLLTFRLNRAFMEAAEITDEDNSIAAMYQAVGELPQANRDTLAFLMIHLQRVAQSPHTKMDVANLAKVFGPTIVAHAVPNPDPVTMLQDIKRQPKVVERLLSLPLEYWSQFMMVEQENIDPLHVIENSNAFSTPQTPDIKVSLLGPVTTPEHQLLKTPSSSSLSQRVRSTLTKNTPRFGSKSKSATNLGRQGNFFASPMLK

[3] = NIH-3T3 fibroblast cytotoxicity, dose response, cytotoxicity control, cell-based, fluorescence, Alamar Blue, secondary assay (AID 2327); format: functional;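 also: NIH-3T3 mouse fibroblasts cultured with fluconazole at 8 µg/mL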
[4] = Trypanosoma cruzi growth suppression in host cells – NIH3T3 host cells, beta-gal luminescence, confirmation (AID 2044); format: functional, cell-based;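 also: intracellular parasites grown in NIH/3T3 mouse fibroblasts as host cells; luminescent beta-galactosidase reporter signal from transgenic T. cruzi replicating inside host cells; inhibitors lower the luminescence signal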
[5] = NIH3T3 cell viability loss – ATP luminescence, mouse fibroblasts, counter-screen, dose response (AID 2010); format: functional, cell-based;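 also: cells exposed to compound for about 90 hours before reading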
cells = format: functional
Cytochrome P450 3A4 = Cytochrome P450 3A4 (Homo sapiens, UniProt P08684);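 also: CYP3A4 tested as one member of a cytochrome P450 panel screen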
[6] = Luminescence Cell-Based Dose Retest to Confirm Inhibitors of Cancer Stem Cells. [Related pubchem assays (depositor defined):AID2717, AID2721]; format: functional; conditions: Homo sapiens
INS1 = assay: INS-1E survival protection against cytokine death – cell-based, luminescence, retest, dose response (AID 449756); format: functional; conditions: Rattus norvegicus;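 also: cell death triggered by IL-1 beta plus TNF-alpha plus IFN-gamma mixture; protective hits raise ATP signal compared with cytokine alone wells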
Cytochrome P450 2C19 = Cytochrome P450 2C19 (Homo sapiens, UniProt P33261); assay: Cytochrome panel assay with activity outcomes. Panel member name: p450-cyp2c19 Compounds with AC50 equal or less than 10 uM are considered active; format: functional; conditions: read-out: AC50
Cytochrome P450 1A2 = biological target: T3, Cytochrome P450 1A2 (Homo sapiens, UniProt P05177);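 also: PubChem cytochrome P450 panel assay, CYP1A2 panel member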
T3 sequence (P05177 whole entry): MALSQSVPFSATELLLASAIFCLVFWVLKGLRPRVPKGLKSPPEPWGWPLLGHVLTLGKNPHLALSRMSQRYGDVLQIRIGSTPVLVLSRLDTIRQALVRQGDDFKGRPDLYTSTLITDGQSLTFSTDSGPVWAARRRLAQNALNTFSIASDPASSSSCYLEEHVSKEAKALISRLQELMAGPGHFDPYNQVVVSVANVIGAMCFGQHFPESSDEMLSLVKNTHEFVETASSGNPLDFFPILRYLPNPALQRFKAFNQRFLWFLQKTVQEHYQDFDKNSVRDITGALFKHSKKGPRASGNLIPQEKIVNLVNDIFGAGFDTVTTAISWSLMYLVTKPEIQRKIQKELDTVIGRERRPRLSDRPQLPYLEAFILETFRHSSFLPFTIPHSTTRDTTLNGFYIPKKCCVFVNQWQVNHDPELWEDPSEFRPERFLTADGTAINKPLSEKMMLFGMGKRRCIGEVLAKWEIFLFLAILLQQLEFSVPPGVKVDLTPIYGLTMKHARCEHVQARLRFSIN

Chain of Cytochrome P450 2C9 (P11712 whole entry): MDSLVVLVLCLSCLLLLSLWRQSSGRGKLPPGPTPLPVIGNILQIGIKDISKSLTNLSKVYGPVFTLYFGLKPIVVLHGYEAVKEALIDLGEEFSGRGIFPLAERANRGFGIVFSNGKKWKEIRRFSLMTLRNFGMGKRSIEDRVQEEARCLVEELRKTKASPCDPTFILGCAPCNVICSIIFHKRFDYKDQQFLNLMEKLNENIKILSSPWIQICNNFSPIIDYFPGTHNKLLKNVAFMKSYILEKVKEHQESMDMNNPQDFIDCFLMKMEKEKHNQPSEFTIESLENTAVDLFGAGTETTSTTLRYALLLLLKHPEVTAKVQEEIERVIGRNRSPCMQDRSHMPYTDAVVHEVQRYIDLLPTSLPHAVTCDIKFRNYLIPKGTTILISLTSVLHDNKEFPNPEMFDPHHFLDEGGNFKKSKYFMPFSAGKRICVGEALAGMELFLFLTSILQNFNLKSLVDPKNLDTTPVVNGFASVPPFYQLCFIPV
Chain of Cytochrome P450 3A4 (P08684 whole entry): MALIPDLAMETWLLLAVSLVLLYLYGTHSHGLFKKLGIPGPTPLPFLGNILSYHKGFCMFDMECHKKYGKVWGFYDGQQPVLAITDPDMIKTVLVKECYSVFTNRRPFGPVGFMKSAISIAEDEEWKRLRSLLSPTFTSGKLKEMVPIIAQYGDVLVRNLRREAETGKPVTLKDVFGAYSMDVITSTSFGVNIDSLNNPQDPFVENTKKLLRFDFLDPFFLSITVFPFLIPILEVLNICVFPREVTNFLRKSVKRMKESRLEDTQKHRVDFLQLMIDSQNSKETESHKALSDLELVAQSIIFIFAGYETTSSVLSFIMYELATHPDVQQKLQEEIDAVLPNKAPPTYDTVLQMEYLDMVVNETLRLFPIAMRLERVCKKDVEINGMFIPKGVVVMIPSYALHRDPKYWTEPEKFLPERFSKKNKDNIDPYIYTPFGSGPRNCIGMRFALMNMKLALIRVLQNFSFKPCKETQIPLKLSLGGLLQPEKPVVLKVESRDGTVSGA
Chain of Cytochrome P450 2C19 (P33261 whole entry): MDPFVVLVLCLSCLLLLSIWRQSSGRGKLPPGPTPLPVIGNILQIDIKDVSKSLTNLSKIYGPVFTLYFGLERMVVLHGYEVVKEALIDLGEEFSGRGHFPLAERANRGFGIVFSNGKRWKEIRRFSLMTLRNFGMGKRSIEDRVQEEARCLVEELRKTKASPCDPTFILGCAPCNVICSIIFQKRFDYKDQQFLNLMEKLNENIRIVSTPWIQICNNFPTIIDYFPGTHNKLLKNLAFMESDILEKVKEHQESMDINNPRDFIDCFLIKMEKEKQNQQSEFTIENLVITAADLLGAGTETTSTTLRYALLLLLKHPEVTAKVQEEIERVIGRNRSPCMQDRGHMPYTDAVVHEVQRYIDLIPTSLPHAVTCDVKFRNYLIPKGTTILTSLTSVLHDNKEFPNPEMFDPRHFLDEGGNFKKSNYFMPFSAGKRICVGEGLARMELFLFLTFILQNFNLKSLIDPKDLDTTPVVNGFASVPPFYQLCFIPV
Chain of Cytochrome P450 2D6 (P10635 whole entry): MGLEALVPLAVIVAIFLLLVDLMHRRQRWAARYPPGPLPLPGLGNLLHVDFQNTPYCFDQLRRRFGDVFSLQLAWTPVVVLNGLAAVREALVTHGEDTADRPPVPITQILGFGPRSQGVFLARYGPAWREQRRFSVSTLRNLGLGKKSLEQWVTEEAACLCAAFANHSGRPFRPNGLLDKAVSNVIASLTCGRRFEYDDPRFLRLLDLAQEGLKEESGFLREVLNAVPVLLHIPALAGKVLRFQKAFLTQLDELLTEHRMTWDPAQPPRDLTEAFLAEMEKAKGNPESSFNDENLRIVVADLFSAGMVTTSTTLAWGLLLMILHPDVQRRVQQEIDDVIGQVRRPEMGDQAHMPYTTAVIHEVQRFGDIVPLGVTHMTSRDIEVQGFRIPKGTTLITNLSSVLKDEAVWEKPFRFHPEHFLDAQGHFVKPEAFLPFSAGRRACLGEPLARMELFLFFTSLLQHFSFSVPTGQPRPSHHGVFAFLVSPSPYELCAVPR

Cc1nc2sccc2c(=O)n1-c1cccc(Cl)c1
AC50 (Cytochrome P450 2D6): 12.6 µM (inconclusive) | AC50 (Cytochrome P450 2C9): 20 µM (inconclusive)

CC1(C)CC(=O)C2=C(C1)N(c1ccc(F)cc1)C(=O)CC2c1ccccc1 (stereo unspecified)
EC50 [1]: > 195 µM (not active)

COc1cc(OC)c(CN2CCCN(C)CC2)cc1Br
IC50 [2]: 107 µM (active)

Cc1ccc(NC(=O)CNCCCN2CCOCC2)cc1S(=O)(=O)N1CCCCC1
IC50 [2]: 76.5 µM (active)

COc1nc(Nc2ccc(O)cc2)nc(OC(C(F)(F)F)C(F)(F)F)n1
IC50 [2]: 35.1 µM (active)

Cn1cc(/C=C(\C#N)C(=O)Nc2cccc([N+](=O)[O-])c2)c2ccccc21
EC50 [1]: 4.14 µM (active)

S=C(NCCSCc1c(Cl)cccc1Cl)Nc1ccccc1
EC50 [3]: > 160 µM (inactive) | EC50 [4]: 2.94 µM (active) | EC50 [5]: > 60 µM (not active) | AC50 (Cytochrome P450 2C9): 10 µM (inconclusive)

Cc1ccc(C)c(NC(=O)c2cc([N+](=O)[O-])cc([N+](=O)[O-])c2)c1
IC50 (cells): 10.1 µM (active)

C=C1SC(Nc2c(C)cc(C)cc2C)=NC12CCCCC2
EC50 [1]: > 195 µM (not active) | EC50 [4]: 0.561 µM (active) | EC50 [5]: > 60 µM (not active)

Cc1cc(=O)oc(C)c1C(=O)NCc1cccnc1
AC50 (Cytochrome P450 3A4): 25.1 µM (inconclusive) | AC50 (Cytochrome P450 2C9): 3.16 µM (inconclusive)

CCCn1nnnc1-c1cccc(Cl)c1
AC50 (Cytochrome P450 2C9): 1.26 µM (inconclusive)

Cc1ccc(C(=O)N2N=C(c3ccc(Br)cc3)CC2c2ccccc2O)cc1 (stereo unspecified)
EC50 [4]: 2.15 µM (active) | EC50 [5]: 13.6 µM (active) | AC50 [6]: 3.63 µM (active) | AC50 (INS1): 7.42 µM (active)

COc1cc(N)ccc1NC(=O)c1cccs1
IC50 [2]: 106 µM (active)

CCn1nnc(NC(=O)COc2ccc(C3CCCCC3)cc2)n1
IC50 (cells): 18.4 µM (active)

CC(=O)COc1ccccc1OC(=O)c1ccco1
EC50 [1]: > 195 µM (not active)

COc1ccc2nc(NC(=O)CN3CCOCC3)sc2c1
EC50 [1]: > 195 µM (not active)

CN(Cc1ccccc1)C(=O)C1CCCN(Cc2ccc(Cl)cc2)C1 (stereo unspecified)
IC50 [2]: 161 µM (active)

NC(=O)CC(NC(=O)Cc1ccc(Br)cc1)c1ccc(N2CCC(Cc3ccccc3)CC2)c([N+](=O)[O-])c1 (stereo unspecified)
AC50 [6]: 12.3 µM (active)

OCC#CCSc1nnc(-c2ccc(Br)cc2)o1
IC50 (cells): 5.2 µM (active)

COc1cccc2cc(C(=O)OC3CCN(C)CC3)c(=O)oc12
EC50 [1]: > 195 µM (not active)

Brc1c(-c2ccc3c(c2)OCO3)nc2ncccn12
IC50 (cells): 4.7 µM (active)

CNc1ncc(C(=O)c2ccccc2)s1
AC50 (Cytochrome P450 2C19): 2.24 µM (inconclusive) | AC50 (Cytochrome P450 3A4): 28.2 µM (inconclusive) | AC50 (Cytochrome P450 2C9): 7.94 µM (inconclusive)

COc1ccc(CNc2ncc(-c3ccc(F)cc3)n2C)cc1OC
IC50 [2]: 56.8 µM (active)

C=CCNC(=S)N1CCN(Cc2ccc3c(c2)OCO3)CC1
IC50 [2]: 158 µM (active)

CS(=O)(=O)N(CC(=O)NCc1ccccc1)C1CCCCC1
EC50 [1]: > 195 µM (not active)

O=C1CCC(=O)N1CNc1ccccn1
EC50 [1]: > 195 µM (not active)

CCOC(=O)c1c(NC(=O)CNC2CCCc3ccccc32)sc(C(N)=O)c1C (stereo unspecified)
EC50 [1]: 25 µM (active)

Cc1noc(C)c1CS(=O)(=O)c1ccc(Br)cc1
AC50 (Cytochrome P450 2C9): 31.6 µM (inconclusive)

O=C(NCc1ccc2c(c1)OCO2)c1cc2c(s1)CS(=O)(=O)C2
EC50 [1]: > 195 µM (not active)

CCCCOc1ccc(N2CC(C(=O)NCCc3ccc(OC)c(OC)c3)CC2=O)cc1 (stereo unspecified)
EC50 [1]: > 195 µM (not active)

CCNC(=O)NC(=O)CSc1nc2ccccc2n1CC(C)C
AC50 (Cytochrome P450 2D6): 14.1 µM (inconclusive) | AC50 (Cytochrome P450 2C9): 20 µM (inconclusive)

CCC1C=CC=CC[C@H](C)[C@@H](O)[C@](C)(O)C(=O)[C@@H](C)[C@H](O)[C@@H](C)C(=O)[C@H](C)[C@@H](O)[C@H](C)C=CC(=O)OC2[C@@H](C)C(CC1)OC1(CC[C@@H](C)C(C[C@H](C)O)O1)[C@@H]2C (stereo partly specified)
AC50 [6]: 2.9 µM (active)

CCc1cccc(NC(=O)COC(=O)/C=C/c2cccs2)c1
EC50 [1]: > 195 µM (not active)

NCCc1c[nH]c2ccc(OC(=O)C(=O)O)cc12
AC50 (Cytochrome P450 2C19): 1.58 µM (inconclusive) | AC50 (Cytochrome P450 2C9): 3.98 µM (inconclusive)

COc1cc2c(cc1OC)C(C(=O)Nc1cccc(C)n1)C(c1cccnc1)N(C)C2=O (stereo unspecified)
AC50 (Cytochrome P450 3A4): 15.8 µM (inconclusive) | AC50 (Cytochrome P450 2C9): 0.00562 µM (inconclusive)

CCCCN=C(NNc1ccc(Br)cc1)C(=O)OCC
AC50 [6]: 2.89 µM (active)

CCOC(=O)c1nn(-c2ccccc2)c2nc(Nc3ccccc3)cc(=O)n12
IC50 (cells): 5.99 µM (active)

COCCNC(=O)c1ccc2c(c1)ncn2-c1ccc(F)c(F)c1
AC50 (Cytochrome P450 2C19): 28.2 µM (inconclusive) | AC50 (Cytochrome P450 2C9): 17.8 µM (inconclusive)

COc1ncc2nc(CCc3ccccc3)c(=O)n(-c3ccccc3)c2n1
AC50 (Cytochrome P450 2C9): 25.1 µM (inconclusive)

CCOc1ncccc1C(=O)OCC(=O)N1CCc2ccccc21
IC50 (cells): 13.9 µM (active)

COC(=O)COc1ccc2c(=O)c(-c3ccccc3OC)coc2c1
IC50 (cells): 5.9 µM (active)

COC(=O)[C@@H]1C[C@H]1[C@@H](NC(=O)c1cc(C)on1)c1ccccc1
AC50 (Cytochrome P450 3A4): 31.6 µM (inconclusive) | AC50 (Cytochrome P450 2C9): 39.8 µM (inconclusive)

CNC(C)C(=O)NC(C(=O)N1CCCC1C(=O)NNc1ccccc1)C(C)C (stereo unspecified)
AC50 [6]: 2.17 µM (active)

C[C@@H]1CCCC(CC(=O)O)(CC(=O)O)C1
AC50 (Cytochrome P450 1A2): 0.631 µM (inconclusive)

C/C(=N\NC(=O)c1nnn(-c2nonc2N)c1CN1CCc2ccccc21)c1ccccc1O
AC50 [6]: 2.72 µM (active) | AC50 (INS1): 1.98 µM (active)

CSc1ncnc2c1ncn2CCCNc1ccc(C)c(C)c1
IC50 [2]: 207 µM (active)

O=C(N/N=C/c1ccc(OC(=O)c2ccco2)cc1)c1ccccn1
IC50 (cells): 20.6 µM (active)

Oc1ccccc1/C=N/C1=NN(c2cccc(C(F)(F)F)c2)CC1
IC50 [2]: 16.9 µM (active)
